Source: article PMC6270420, “Antibacterial Activity of Salicylanilide 4-(Trifluoromethyl)benzoates” (Molecules, 2013)
In brackets after ≈: the same amount, converted by molar mass. Like-named read-outs stand apart in the source and are kept apart here.

What was measured:
Mtb. Praha 131 (XDR-TB) = experiment: microbe, parasite or virus in culture; format: cell-based; details: Mycobacterium tuberculosis, read-out: MIC Mtb. Praha 131 (XDR-TB)
Mtb. 7357/1988 = experiment: microbe, parasite or virus in culture; format: cell-based; details: Mycobacterium tuberculosis, read-out: MIC Mtb. 7357/1988
Mtb. 234/2005 = experiment: microbe, parasite or virus in culture; format: cell-based; details: Mycobacterium tuberculosis, read-out: MIC Mtb. 234/2005
Mtb. 53/2009 = experiment: microbe, parasite or virus in culture; format: cell-based; details: Mycobacterium tuberculosis, read-out: MIC Mtb. 53/2009
Mtb. 9449/2006 = experiment: microbe, parasite or virus in culture; format: cell-based; details: Mycobacterium tuberculosis, read-out: MIC Mtb. 9449/2006
[1] = test system: Mycobacterium kansasii 235/80; experiment: Antimycobacterial MIC micromethod; format: cell-based; details: read-out: MIC M. kansasii 235/80
[2] = test system: Mycobacterium avium 330/88; experiment: Antimycobacterial MIC micromethod; format: cell-based
[3] = test system: Mycobacterium tuberculosis 331/88 (H37Rv); experiment: Antimycobacterial MIC micromethod, Šula's medium; format: cell-based; details: read-out: MIC Mtb. 331/88
Mtb. Praha 1 = experiment: microbe, parasite or virus in culture; format: cell-based; details: Mycobacterium tuberculosis, read-out: MIC Mtb. Praha 1
[4] = test system: M. kansasii 6509/96 (clinically isolated strain); experiment: Antimycobacterial MIC micromethod; format: cell-based; details: Mycobacterium kansasii, read-out: MIC M. kansasii 6509/96
[5] = target: T1, mycobacterial isocitrate lyase (ICL1, Rv0467) (Mycobacterium tuberculosis, UniProt P9WKK7); experiment: Isocitrate lyase inhibition assay (ICL1); format: biochemical, Mycobacterium tuberculosis H37Rv; details: 10 μmol/L; read-out: % ICL inhibition at 10 μmol/L (± standard deviation)
T1 construct: His tag (from pET-28b(+)); made in house; host or cells: E. coli BL21(DE3), pET-28b(+) plasmid
T1 sequence (P9WKK7 1-428): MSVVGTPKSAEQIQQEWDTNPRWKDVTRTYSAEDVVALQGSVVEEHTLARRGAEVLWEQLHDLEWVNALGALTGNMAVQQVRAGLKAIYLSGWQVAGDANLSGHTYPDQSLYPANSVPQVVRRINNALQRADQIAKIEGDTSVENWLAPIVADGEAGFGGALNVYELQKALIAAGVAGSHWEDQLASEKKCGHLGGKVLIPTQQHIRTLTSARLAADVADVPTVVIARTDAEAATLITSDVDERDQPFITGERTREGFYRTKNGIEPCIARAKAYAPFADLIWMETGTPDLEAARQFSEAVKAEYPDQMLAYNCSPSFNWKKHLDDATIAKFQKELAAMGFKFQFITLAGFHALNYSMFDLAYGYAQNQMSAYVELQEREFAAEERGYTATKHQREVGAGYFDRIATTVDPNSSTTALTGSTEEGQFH

| Compound | MIC (Mtb. Praha 131 (XDR-TB); 336 h) [µM] | MIC (Mtb. Praha 131 (XDR-TB); 504 h) [µM] | MIC (Mtb. 7357/1988; 336 h) [µM] | MIC (Mtb. 7357/1988; 504 h) [µM] | MIC (Mtb. 234/2005; 336 h) [µM] | MIC (Mtb. 234/2005; 504 h) [µM] | MIC (Mtb. 53/2009; 336 h) [µM] | MIC (Mtb. 53/2009; 504 h) [µM] | MIC (Mtb. 9449/2006; 336 h) [µM] | MIC ([1]; 235/80, 168 h, 7 d) [µM] | MIC ([1]; 235/80, 336 h, 14 d) [µM] | MIC ([1]; 235/80, 504 h, 21 d) [µM] | MIC ([2]; 330/88, 336 h, 14 d) [µM] | MIC ([2]; 330/88, 504 h, 21 d) [µM] | MIC ([3]; 336 h, 14 d) [µM] | MIC ([3]; 504 h, 21 d) [µM] | MIC ([4]; 168 h, 7 d) [µM] | MIC ([4]; 336 h, 14 d) [µM] | MIC ([4]; 504 h, 21 d) [µM] | inhibition at 10 µM [5] [%] | further results |
| --- | --- | --- | --- | --- | --- | --- | --- | --- | --- | --- | --- | --- | --- | --- | --- | --- | --- | --- | --- | --- | --- |
| O=C(Oc1ccc(Cl)cc1C(=O)Nc1cccc(Cl)c1)c1ccc(C(F)(F)F)cc1 [1a] | 4 (≈ 1.82 µg/mL) | 4 (≈ 1.82 µg/mL) | 4 (≈ 1.82 µg/mL) | 4 (≈ 1.82 µg/mL) | 4 (≈ 1.82 µg/mL) | 4 (≈ 1.82 µg/mL) | 4 (≈ 1.82 µg/mL) | 4 (≈ 1.82 µg/mL) | 4 (≈ 1.82 µg/mL) | 0.5 (≈ 0.227 µg/mL) | 2 (≈ 0.908 µg/mL) | 4 (≈ 1.82 µg/mL) | 8 (≈ 3.63 µg/mL) | 16 (≈ 7.27 µg/mL) | 2 (≈ 0.908 µg/mL) | 4 (≈ 1.82 µg/mL) | 2 (≈ 0.908 µg/mL) | 8 (≈ 3.63 µg/mL) | 8 (≈ 3.63 µg/mL) | 18 ± 1.9 | MIC (Mtb. 9449/2006; 504 h): 4 µM (≈ 1.82 µg/mL); MIC (Mtb. Praha 1; 336 h): 4 µM (≈ 1.82 µg/mL); MIC (Mtb. Praha 1; 504 h): 4 µM (≈ 1.82 µg/mL) |
| O=C(Oc1ccc(Cl)cc1C(=O)Nc1ccc(Cl)cc1)c1ccc(C(F)(F)F)cc1 [1c] | 2 (≈ 0.908 µg/mL) | 2 (≈ 0.908 µg/mL) | 2 (≈ 0.908 µg/mL) | 2 (≈ 0.908 µg/mL) | 4 (≈ 1.82 µg/mL) | 4 (≈ 1.82 µg/mL) | 4 (≈ 1.82 µg/mL) | 4 (≈ 1.82 µg/mL) | 2 (≈ 0.908 µg/mL) | 1 (≈ 0.454 µg/mL) | 2 (≈ 0.908 µg/mL) | 2 (≈ 0.908 µg/mL) | 4 (≈ 1.82 µg/mL) | 8 (≈ 3.63 µg/mL) | 2 (≈ 0.908 µg/mL) | 2 (≈ 0.908 µg/mL) | 1 (≈ 0.454 µg/mL) | 4 (≈ 1.82 µg/mL) | 4 (≈ 1.82 µg/mL) | 12 ± 2.7 | MIC (Mtb. 9449/2006; 504 h): 2 µM (≈ 0.908 µg/mL); MIC (Mtb. Praha 1; 336 h): 2 µM (≈ 0.908 µg/mL); MIC (Mtb. Praha 1; 504 h): 2 µM (≈ 0.908 µg/mL) |
| O=C(Oc1cc(Cl)ccc1C(=O)Nc1ccc(Cl)cc1)c1ccc(C(F)(F)F)cc1 [1d] | 2 (≈ 0.908 µg/mL) | 4 (≈ 1.82 µg/mL) | 4 (≈ 1.82 µg/mL) | 4 (≈ 1.82 µg/mL) | 4 (≈ 1.82 µg/mL) | 4 (≈ 1.82 µg/mL) | 4 (≈ 1.82 µg/mL) | 4 (≈ 1.82 µg/mL) | 4 (≈ 1.82 µg/mL) | 1 (≈ 0.454 µg/mL) | 4 (≈ 1.82 µg/mL) | 4 (≈ 1.82 µg/mL) | 4 (≈ 1.82 µg/mL) | 8 (≈ 3.63 µg/mL) | 4 (≈ 1.82 µg/mL) | 4 (≈ 1.82 µg/mL) | 1 (≈ 0.454 µg/mL) | 4 (≈ 1.82 µg/mL) | 4 (≈ 1.82 µg/mL) | 12 ± 2.3 | MIC (Mtb. 9449/2006; 504 h): 4 µM (≈ 1.82 µg/mL); MIC (Mtb. Praha 1; 336 h): 2 µM (≈ 0.908 µg/mL); MIC (Mtb. Praha 1; 504 h): 4 µM (≈ 1.82 µg/mL) |
| O=C(Oc1ccc(Cl)cc1C(=O)Nc1ccc(Br)cc1)c1ccc(C(F)(F)F)cc1 [1i] | 2 (≈ 0.997 µg/mL) | 2 (≈ 0.997 µg/mL) | 2 (≈ 0.997 µg/mL) | 4 (≈ 1.99 µg/mL) | 2 (≈ 0.997 µg/mL) | 2 (≈ 0.997 µg/mL) | 4 (≈ 1.99 µg/mL) | 4 (≈ 1.99 µg/mL) | 2 (≈ 0.997 µg/mL) | 1 (≈ 0.499 µg/mL) | 4 (≈ 1.99 µg/mL) | 8 (≈ 3.99 µg/mL) | 8 (≈ 3.99 µg/mL) | 8 (≈ 3.99 µg/mL) | 2 (≈ 0.997 µg/mL) | 2 (≈ 0.997 µg/mL) | 2 (≈ 0.997 µg/mL) | 8 (≈ 3.99 µg/mL) | 8 (≈ 3.99 µg/mL) | 18 ± 1.2 | MIC (Mtb. 9449/2006; 504 h): 4 µM (≈ 1.99 µg/mL); MIC (Mtb. Praha 1; 336 h): 2 µM (≈ 0.997 µg/mL); MIC (Mtb. Praha 1; 504 h): 2 µM (≈ 0.997 µg/mL) |
| O=C(Oc1cc(Cl)ccc1C(=O)Nc1cccc(F)c1)c1ccc(C(F)(F)F)cc1 [1l] | – | – | – | – | – | – | – | – | – | 4 (≈ 1.75 µg/mL) | 8 (≈ 3.5 µg/mL) | 8 (≈ 3.5 µg/mL) | 8 (≈ 3.5 µg/mL) | 16 (≈ 7 µg/mL) | 4 (≈ 1.75 µg/mL) | 4 (≈ 1.75 µg/mL) | 8 (≈ 3.5 µg/mL) | 8 (≈ 3.5 µg/mL) | 16 (≈ 7 µg/mL) | ≥ 20 | – |
